Data: patent US7586003B2, “Derivatives of seleno-amino acids” (Zinpro Corporation, priority 2005, dated 2009)

Legend:
[1] = Tissue selenium content of lactating cows fed selenium premixes (milk serum, plasma, liver, whole blood); assay type: in vivo; conditions: for Liver Se / Milk Serum Se / Plasma Se / Whole Blood Se: female, cow
Description: (§1) Three premixes were prepared for use in a field study in lactating cows. One of the premixes contained no additional source of selenium and was intended to serve as the placebo. The second contained sodium selenite and the third contained N-Succinyl L-Selenomethionine (Compound 2). Each of the premixes was prepared by mixing an amount of the selenium source with sufficient amount of finely ground sugar to contain 250 ppm of selenium. Each premix was color identified by the incorporation of a solution of a food color during formulation and given a letter designation by random selection. […] This was done to avoid any possible biases in the interpretation of the results of the feeding experiments. Thirty lactating cows were fed one of the three premixes as a daily topdress. The effect of these selenium sources on tissue selenium content and whole blood glutathione peroxidase activity were determined. All cows were fed a total mixed diet devoid of added selenium for an initial 8-week depletion period. Daily rations were topdressed with an amount of the premix to provide 7.5 mg selenium. Treatments were continued for 8-week followed by a 4-week depletion period. Milk samples were collected on one day per week beginning the week prior to the first depletion period (Week 0) and continuing through the 20 weeks of the experiment. The selenium content of the milk serum obtained after the samples were defatted was determined. Blood samples were collected on one day per week beginning the week prior to the first depletion period (Week 0) and at four week intervals throughout the experiment (Weeks 8, 12, 16 and 20 in Table 1). The blood samples were draw into trace-element free vacutainer tubes containing an anticoagulant. Aliquots of whole blood were analyzed for selenium and glutathione peroxidase activity. Other aliquots of blood were centrifuged to harvest plasma and the selenium content of the plasma samples was determined. Liver samples were obtained by biopsy on one day per week beginning the week prior to the first depletion period (Week 0) and at four week intervals throughout the experiment (Weeks 8, 12, 16 and 20 in Table 1). Liver samples were analyzed for selenium content. […] The dramatic changes in the selenium concentrations in response to changes in dietary intake of selenium indicate that these tissues are sensitive indicators of the dietary selenium status of the lactating cows. […] The changes in the selenium concentration and glutathione peroxidase activity (GPX) in whole blood in response to changing dietary selenium intake were less sensitive than those in milk serum, plasma and liver.

glutathione peroxidase = test: Whole-blood glutathione peroxidase activity of lactating cows fed selenium premixes; assay type: in vivo
Description: as §1

Solubility in water = conditions: in words; partly relative to parent seleno-amino acid
[2] = Stability compared with parent seleno-amino acid
[3] = Wk 0, before first depletion period
[4] = Wk 8, end of 8-week depletion, before treatment
[5] = Wk 12, 4 weeks of topdress providing 7.5 mg selenium daily
[6] = Wk 16, 8 weeks of topdress providing 7.5 mg selenium daily
[7] = Wk 20, end of 4-week second depletion

C[Se]CC[C@H](NC(=O)CCC(=O)O)C(=O)O [Compound 2, (S)-4-(1-carboxy-3-(methylselanyl)propylamino)-4-oxobutanoic Acid]
Liver Se ([1]; in vivo, 0 week of experiment): 1151 ng/g dry wt.
Milk Serum Se ([1]; in vivo, 0 week of experiment): 14.96 ng/mL
Plasma Se ([1]; in vivo, 0 week of experiment): 63.5 ng/mL
Whole Blood Se ([1]; in vivo, 0 week of experiment): 144.0 ng/mL
Liver Se ([1]; in vivo, 8 week of experiment): 690 ng/g dry wt.
Milk Serum Se ([1]; in vivo, 8 week of experiment): 4.30 ng/mL
Plasma Se ([1]; in vivo, 8 week of experiment): 43.6 ng/mL
Whole Blood Se ([1]; in vivo, 8 week of experiment): 136.3 ng/mL
Liver Se ([1]; in vivo, 20 week of experiment): 1003 ng/g dry wt.
Milk Serum Se ([1]; in vivo, 20 week of experiment): 10.91 ng/mL
Plasma Se ([1]; in vivo, 20 week of experiment): 52.2 ng/mL
Whole Blood Se ([1]; in vivo, 20 week of experiment): 112.1 ng/mL
Bioavailability as source of dietary selenium ([1]; in vivo): more bioavailable source of dietary selenium than sodium selenite
Whole Blood GPX (glutathione peroxidase; [3]): 18.2 EU/ml
Whole Blood GPX (glutathione peroxidase; [4]): 19.2 EU/ml
Whole Blood GPX (glutathione peroxidase; [5]): 18.7 EU/ml
Whole Blood GPX (glutathione peroxidase; [6]): 17.5 EU/ml
Whole Blood GPX (glutathione peroxidase; [7]): 19.8 EU/ml

C[Se]CC[C@H](NC(N)=O)C(=O)O [Compound 3, N-Carbamoyl L-Selenomethionine]
Solubility in water (Solubility in water): more soluble in water
Stability of the solution relative to parent seleno-amino acid ([2]; solution in water): appears to be more stable than the parent seleno-amino acid

C[Se]CC[C@@H]1NC(=O)NC1=O [Compound 4, (S)-5-(2-(methylselanyl)ethyl)midazolidine-2,4-dione]
Solubility in water (Solubility in water): less soluble
Stability relative to parent seleno-amino acid [2]: appears to be more stable than the parent seleno-amino acid

O=[Se](O)O [Sodium Selenite, reference compound]
Change of selenium concentrations in milk serum, plasma and liver on supplemented diet ([1]; Wk12 & Wk 16, 7.5 mg selenium daily): progressive and significant increases
Whole Blood GPX (glutathione peroxidase; [3]): 17.3 EU/ml
Whole Blood GPX (glutathione peroxidase; [4]): 17.9 EU/ml
Whole Blood GPX (glutathione peroxidase; [5]): 17.6 EU/ml
Whole Blood GPX (glutathione peroxidase; [6]): 16.1 EU/ml
Whole Blood GPX (glutathione peroxidase; [7]): 17.9 EU/ml

C[Se]CC[C@H](N)C(=O)OC(C)C.Cl [Compound 1, L-Selenomethionine Isopropyl Ester Hydrochloride]
Solubility in water (Solubility in water): readily soluble in water
Stability relative to L-selenomethionine ([2]; in the solid state and in solution): significantly more stable than L-selenomethionine
